Laboratory results published in patent US20140249097A1, “Inhibition of HIF-1 activation for Anti-Tumor and Anti-Inflammatory responses” (priority 2010, published 2014).
Where two headings read alike, the source gives them in different places. Peptide text beside a SMILES is read from it. * marks the point of attachment. Cbz = O=C(OCc1ccccc1)*

What was measured:
HIF-1α [1] = assay type: cell-based, murine
C533S-ODD-luc = C533S-ODD-luc reporter in 4T1 cells in vitro; assay type: cell-based, murine
iNOS = assay: Western blotting of iNOS in 4T1ODD-luc cells; assay type: cell-based, mouse; settings: for inhibition of iNOS expression in doxorubicin-treated cells / doxorubicin-induced iNOS upregulation: with doxorubicin; for inhibition of iNOS expression in doxorubicin-treated cells: 24 h; for doxorubicin-induced iNOS upregulation: 48 h; for basal level of iNOS expression: without doxorubicin, 24 h and 48 h, 10 μg/ml 1400W or 15 μM EGCG
Protocol: (§1) Cell nuclear proteins were extracted using the NucBuster protein extraction kit (Novagen, Gibbstown, N.J., United States of America). Total cell lysates or cell nuclear extractions were quantified using a protein assay reagent (Bio-Rad). Equal amounts of protein sample were separated by Bis-HCl gel (Bio-Rad) and transferred to a […] Immun-Blot PVDF membrane (Bio-Rad).

4T1ODD-luc cells = assay: Cell Titer-Glo cell viability assay; settings: 10 μg/ml 1400W or 15 μM EGCG with 1 μg/ml doxorubicin, to day 3
Source text: Cell viability was quantified by Cell Titer-Glo luminescent cell viability assay (Promega, Madison, Wis., United States of America) daily until day 3. The daily cell viability was normalized to the initial cell viability on day 0 within each group.

STAT1 = assay: Western blotting of STAT1 and phospho-STAT1 in 4T1ODD-luc cells; assay type: cell-based, mouse; settings: 48 hours post-treatment
Protocol: as §1

nitric oxide = assay: Flow cytometry of intracellular nitric oxide (DAF-FM) in 4T1ODD-luc cells; assay type: cell-based, mouse; settings: 10 μg/ml 1400W or 15 μM EGCG with 1 μg/ml doxorubicin, 48 hours
Protocol: To detect intracellular nitric oxide levels, 1×10^6 4 T1ODD-luc cells were plated per 10-cm cell culture dish with 8 ml of cell culture medium. Doxorubicin (1 μg/ml and 5 μg/ml) or an equal volume of control solvent was added into the cell culture medium the next day and treatment continued for 48 hours. […] Equal amounts of solvent were added for the control group. To quantify intracellular nitric oxide, a single cell suspension was made after trypsinization. 2 ml of 5 uM nitric oxide-specific probe DAF-FM diacetate (4-amino-5-methylamino-2′,7′-difluorofluorescein diacetate) (Invitrogen) were incubated with each cell sample at room temperature in darkness for 30 minutes. The cells were washed with PBS and centrifuged to remove the excess DAF-FM diacetate probe. The cells were resuspended into 500 ul of phenol-free DMEM and incubated for another 20 minutes for complete intracellular deacetylation of the probe. The mean fluorescence intensity of the deacetylated DAF-FM reacted with nitric oxide was quantified by FACSCalibur flow cytometer in FITC channel (Becton Dickinson, Franklin Lakes, N.J., United States of America).

[2] = test system: 4T1 (murine mammary adenocarcinoma); assay: Tumor growth delay, radiotherapy plus L-NAME, 4T1; assay type: in vivo, mice; settings: 4T1 tumors, 3×6 Gy, L-NAME in drinking water
Source text: (§2) Female NIH Swiss nude mice, C57BL/6 mice were purchased from the National Cancer Institute (NCI; Fredrick, Md., United States of America). Mice with a genetic disruption of the inducible […] gene (C57BL/6 iNOS^−/−) were obtained from the Jackson Laboratory (Bar Harbor, Me., United States of America). Female BALB/c mice were obtained from Charles River Laboratories (Raleigh, N.C., United States of America). Animals were maintained and cared for in accordance with the Duke University Institutional Animal Care and Use Committee guidelines. For tumor implantation, 4T1 tumors were grown in nude mice or in syngeneic BALB/c mice, and B16F10 melanoma in syngeneic C57BL/6 or iNOS^−/− mice. About 5×10^5 wild type- or luciferase reporter gene-transfected tumor cells were injected subcutaneously (s.c.) into mice in 50 μl of PBS solution in the hind legs of ketamine/xylazine-anesthetized mice. When the tumors reached 6-8 mm in diameter, mice were randomly assigned to experimental groups. To image the luciferase activity, single dose of 6 Gy X-ray was given to the tumor on the right leg and this day was set as day 0. The luciferase activity was imaged everyday or every other day for ten days. For the tumor growth delay assay, radiotherapy was employed in its clinical mode: tumors were treated with 3 fractions of 6 Gy every other day from day 0.

B16F10 (murine melanoma) = assay: Tumor growth delay, radiotherapy plus L-NAME, B16F10; assay type: in vivo, mice; settings: B16F10 tumors, 3×6 Gy, L-NAME in drinking water
Source text: as §2

tumor vasculature = assay: CD31 staining of tumor vasculature; assay type: in vivo, mice; settings: L-NAME in conjunction with radiotherapy, tumors excised day 10, 4T1 and B16F10
Protocol: Vessel staining was performed on tumor cryoslices by using the VECTASTAIN® ABC and the NOVARED™ kits from Vector Laboratories (Burlingame, Calif., United States of America), according to the manufacturer's protocol. The primary anti-CD31 antibody (Santa Cruz Biotechnology, Santa Cruz, Calif.) was labeled with a secondary biotinylated anti-rabbit antibody (Jackson ImmunoResearch Labs, Inc.). Slices were counterstained using Harris' hematoxilin. Vascular density was determined by counting CD31-positive structures in 5 random fields per tumor.

HIF-1α [3] = assay: Western blotting of HIF-1α in MCF-7 cells; assay type: cell-based, human; settings: MCF-7 cells, post-treatment day 3
Protocol: as §1

HIF-1α [4] = assay: Western blotting of HIF-1α in 4T1ODD-luc cells; assay type: cell-based, mouse; settings: 4T1ODD-luc cells, post-treatment day 2
Protocol: as §1

## CC1(C)N([O])C(c2ccc(C(=O)[O-])cc2)=[N+]([O-])C1(C)C.[K+] [carboxy-PTIO, potassium 2-(4-carboxyphenyl)-4,4,5,5-tetramethylimidazoline-1-oxyl-3-oxide]
HIF-1α [1]
  effect on HIF-1α activation (ODD-luc) by GSNO: effectively suppressed HIF-1α activation by GSNO

## CC(C)C[C@@H](C=O)NC(=O)[C@H](CC(C)C)NC(=O)[C@H](CC(C)C)NC(=O)OCc1ccccc1 [MG132] (Cbz-Leu-Leu-Leu-aldehyde)
HIF-1α [1]; 4T1 cells, CoCl2 240 μM for 12 hrs, MG132 10 μM for 12 hrs, vs background
  luminescence arising from ODD-luc reporter gene expression: rose significantly

## [Cl-].[Cl-].[Co+2] [CoCl2]
HIF-1α [1]
  luminescence arising from ODD-luc reporter gene expression: rose significantly
C533S-ODD-luc
  C533S-ODD-luc induction: significant inductions, similar to wild-type

## CC(=N)NCc1cccc(CN)c1 [1400W, N-(3-(aminomethyl)benzyl)acetamidine]
iNOS
  inhibition of iNOS expression in doxorubicin-treated cells: not obvious
  doxorubicin-induced iNOS upregulation: successfully suppressed the doxorubicin-induced iNOS upregulation
  basal level of iNOS expression: suppressed the basal level of iNOS expression
4T1ODD-luc cells
  effect of combination on cytotoxicity of doxorubicin (cell viability): did not attenuate the cytotoxicity of doxorubicin
STAT1
  doxorubicin-induced upregulation of STAT1 expression and activation: potently suppressed the doxorubicin-induced upregulation of STAT1 expression and activation
Nitric oxide
  doxorubicin-induced increase of intracellular NO: significantly suppressed the doxorubicin-induced increase of intracellular NO

## COC(=O)[C@@H](N)CCCNC(=N)N[N+](=O)[O-] [L-NAME, Nω-nitro-L-arginine methyl ester]
[2]
  tumor growth delay, therapeutic efficacy of radiotherapy with L-NAME: significantly enhanced the therapeutic efficacy of radiotherapy
B16F10 (murine melanoma)
  tumor growth delay, therapeutic efficacy of radiotherapy with L-NAME: significantly enhanced the therapeutic efficacy of radiotherapy
Tumor vasculature
  tumor vasculature (CD31+ vascular density): significantly reduced tumor vasculature

## N[C@@H](CCC(=O)N[C@@H](CSN=O)C(=O)NCC(=O)O)C(=O)O [GSNO, S-nitrosoglutathione]
C533S-ODD-luc; 4T1 cells, GSNO 1 mM
  C533S-ODD-luc expression induced by GSNO: almost absent

## O=C(O[C@@H]1Cc2c(O)cc(O)cc2O[C@@H]1c1cc(O)c(O)c(O)c1)c1cc(O)c(O)c(O)c1 [EGCG, epigallocatechin gallate]
iNOS
  inhibition of iNOS expression in doxorubicin-treated cells: not obvious
  doxorubicin-induced iNOS upregulation: successfully suppressed the doxorubicin-induced iNOS upregulation
  basal level of iNOS expression: suppressed the basal level of iNOS expression
HIF-1α [3]
  doxorubicin-induced normoxic HIF-1α accumulation: successfully suppressed the doxorubicin-induced normoxic HIF-1α accumulation
4T1ODD-luc cells
  effect of combination on cytotoxicity of doxorubicin (cell viability): did not attenuate the cytotoxicity of doxorubicin
STAT1
  doxorubicin-induced upregulation of STAT1 expression and activation: potently suppressed the doxorubicin-induced upregulation of STAT1 expression and activation
HIF-1α [4]
  doxorubicin-induced normoxic HIF-1α accumulation: successfully suppressed the doxorubicin-induced normoxic HIF-1α accumulation
Nitric oxide
  doxorubicin-induced increase of intracellular NO: significantly suppressed the doxorubicin-induced increase of intracellular NO
